Emax and EC50 data for twelve molecules are collected here from patent US9284286B2, “Specific carboxamides as KCNQ2/3 modulators” (GRÜNENTHAL GMBH, priority 2012, dated 2016).

SMILES strings stand for the structures.

This assay has as its target T1, KCNQ2/3 channels (Homo sapiens, UniProt O43525+O43526).
T1 construct: expressed in transfected cells; host or cells: CHO-K1
As to the kind of experiment: Fluorescence assay using a voltage sensitive dye (fluorimetry). Particulars: CHO-K1 cells expressing KCNQ2/3 channels; for Emax: relative to retigabine = 100%, read-out: Fluorimetry % Efficacy (retigabine = 100%); for EC50: voltage-sensitive dye, KCl depolarisation, read-out: Fluorimetry EC50/IC50. Format: cell-based. As to the method:
Pharmacological Experiments Fluorescence Assay Using a Voltage Sensitive Dye (Fluorimetry)
Human CHO-K1 cells expressing KCNQ2/3 channels are cultivated adherently at 37° C., 5% CC2 and 95% humidity in cell culture bottles (e.g. 80 cm^2 TC flasks, Nunc) with DMEM-high glucose (Sigma Aldrich, D7777) including 10% FCS (PAN Biotech, e.g. 3302-P270521) or alternatively MEM Alpha Medium (1×, liquid, Invitrogen, #22571), 10% fetal calf serum (FCS) (Invitrogen, #10270-106, heat-inactivated) and the necessary selection antibiotics.
Before being sown out for the measurements, the cells are washed with 1×DPBS buffer Ca^2+/Mg^2+-free (e.g. Invitrogen, #14190-094) and detached from the bottom of the culture vessel by using Accutase (PAA Laboratories, #L11-007) (incubation with Accutase for 15 min at 37° C.). The cell number is determined using a CASY™ cell counter (TCC, Schärfe System). Depending on the optimal density for each individual cell line, 20,000-30,000 cells/well/100 μl are seeded onto 96-well Corning™ CeIIBIND™ assay plates (Flat Clear Bottom Black Polystyrene Microplates, #3340). Freshly seeded cells are then left to settle for one hour at room temperature, followed by incubation for 24 hours at 37° C., 5% CO2 and 95% humidity.
The voltage-sensitive fluorescent dye from the Membrane Potential Assay Kit (Red™ Bulk format part R8123 for FLIPR, MDS Analytical Technologies™) is prepared by dissolving the contents of one vessel Membrane Potential Assay Kit Red Component A in 200 ml of extracellular buffer (ES buffer, 120 mM NaCl, 1 mM KCl, 10 mM HEPES, 2 mM CaCl2, 2 mM MgCl2, 10 mM glucose; pH 7.4). After removal of the nutrient medium, the cells are washed once with 200 μl of ES buffer, then loaded for 45 min at room temperature in 100 μl of dye solution in the dark.
Fluorescence measurements are carried out in a BMG Labtech FLUOstar™, BMG Labtech NOVOstar™ or BMG Labtech POLARstar™ instrument (525 nm excitation, 560 nm emission, Bottom Read mode). After incubation with the dye, 50 μl of the test substances in the desired concentrations, or 50 μl of ES buffer for control purposes, are applied to the wells of the assay plate and incubated for 30 min at room temperature while being shielded from light. The fluorescence intensity of the dye is then measured for 5 min and the fluorescence value F1 of each well is thus determined at a given, constant time. 15 μl of a KCl solution are then added to each well (final concentration of potassium ions 92 mM). The change in fluorescence intensity is subsequently monitored until all the relevant values have been obtained (mainly 5-30 min). At a given time post KCl application, a fluorescence value F2 is determined, in this case at the time of the fluorescence peak.
For calculation, the fluorescence intensity F2 is corrected for the fluorescence intensity F1, and the activity (ΔF/F) of the target compound on the potassium channel is determined as follows:
In order to determine whether a substance has agonistic activity,
[formula] can be related to
[formula] of control wells.
[formula] is determined by adding to the well only the buffer solution instead of the test substance, determining the value F1K of the fluorescence intensity, adding the potassium ions as described above, and measuring a value F2K of the fluorescence intensity. F2K and F1K are then calculated as follows: […]
A substance has an agonistic activity on the potassium channel if
[formula] is greater than
Independently of the comparison of
[formula] it is possible to conclude that a target compound has agonistic activity if
[formula] increases dose dependently.
Calculations of EC50 and IC50 values are carried out with the aid of ‘Prism v4.0’ software (GraphPad Software™).

Turning to `CC(C)CCNC(=O)c1ccncc1SCCC(F)(F)c1ccc(F)cc1` [Example 7, 3-[[3,3-Difluoro-3-(4-fluorophenyl)-propyl]sulfanyl]-N-(3-methyl-butyl)-pyridine-4-carboxylic acid amide], the Emax is 197% and the EC50 is 1400 nM.
As to `Cc1nc(SCCC(F)(F)c2ccc(F)cc2)c(C(=O)NCc2ccc(F)cc2)s1` [Example 15, 4-[[3,3-Difluoro-3-(4-fluorophenyl)-propyl]sulfanyl]-N-[(4-fluorophenyl)-methyl]-2-methyl-thiazole-5-carboxylic acid amide], the Emax is 83% and the EC50 is 231 nM.
On to `CC(C)CCNC(=O)c1ccnnc1SCCC(F)(F)c1ccc(F)cc1` [Example 12, 3-[[3,3-Difluoro-3-(4-fluorophenyl)-propyl]sulfanyl]-N-(3-methyl-butyl)-pyridazine-4-carboxylic acid amide], for which the Emax is 203% and the EC50 is 427 nM.
For `CC(C)(C)CCNC(=O)c1ccccc1SCCCc1ccc(F)cc1` [Example 2, N-(3,3-Dimethyl-butyl)-2-[3-(4-fluorophenyl)-propylsulfanyl]-benzamide], in that order: 186% and 501 nM.
Regarding `CC(C)CCNC(=O)c1nccnc1SCCC(F)(F)c1ccc(F)cc1` [Example 9, 3-[[3,3-Difluoro-3-(4-fluorophenyl)-propyl]sulfanyl]-N-(3-methyl-butyl)-pyrazine-2-carboxylic acid amide], the Emax was found to be 199% and the EC50 worked out at 521 nM.
The like results for `O=C(NCc1ccc(F)cc1)c1ccnnc1SCCC(F)(F)c1ccc(F)cc1` [Example 13, 3-[[3,3-Difluoro-3-(4-fluorophenyl)-propyl]sulfanyl]-N-[(4-fluorophenyl)-methyl]-pyridazine-4-carboxylic acid amide] were, in that order, 100% and 264 nM.
For `CC(C)CCNC(=O)c1ncccc1SCCC(F)(F)c1ccc(F)cc1` [Example 3, 3-[[3,3-Difluoro-3-(4-fluorophenyl)-propyl]sulfanyl]-N-(3-methyl-butyl)-pyridine-2-carboxylic acid amide], in that order: 118% and 1590 nM.
In the case of `O=C(NCc1ccc(F)cc1)c1cnccc1SCCC(F)(F)c1ccc(F)cc1` [Example 6, 4-[[3,3-Difluoro-3-(4-fluorophenyl)-propyl]sulfanyl]-N-[(4-fluorophenyl)-methyl]-pyridine-3-carboxylic acid amide], the Emax turned out to be 121% and the EC50 was determined as 563 nM.
For `CC(C)CCNC(=O)c1cncnc1SCCC(F)(F)c1ccc(F)cc1` [Example 10, 4-[[3,3-Difluoro-3-(4-fluorophenyl)-propyl]sulfanyl]-N-(3-methyl-butyl)-pyrimidine-5-carboxylic acid amide], in that order: 211% and 61 nM.
The like results for `O=C(NCc1ccc(F)cc1)c1cncnc1SCCC(F)(F)c1ccc(F)cc1` [Example 11, 4-[[3,3-Difluoro-3-(4-fluorophenyl)-propyl]sulfanyl]-N-[(4-fluorophenyl)-methyl]-pyrimidine-5-carboxylic acid amide] were, in that order, 112% and 51 nM.
For `CC(C)CCNC(=O)c1ccccc1SCCC(F)(F)c1ccc(F)cc1` [Example 1, 2-[[3,3-Difluoro-3-(4-fluorophenyl)-propyl]sulfanyl]-N-(3-methyl-butyl)-benzamide], the Emax is 203% and the EC50 turned out to be 156 nM.
For `CC(C)CCNC(=O)c1cnccc1SCCC(F)(F)c1ccc(F)cc1` [Example 5, 4-[[3,3-Difluoro-3-(4-fluorophenyl)-propyl]sulfanyl]-N-(3-methyl-butyl)-pyridine-3-carboxylic acid amide], in that order: 228% and 849 nM.
